This is an account of results in US11572590B2, “Methods for evaluating tumor cell spheroids using 3D microfluidic cell culture device” (Dana-Farber Cancer Institute, Inc., priority 2017, dated 2023).

SMILES strings stand for the structures. Where two headings read alike, the source gives them in different places.

What all share (test): SelectScreen Kinase Profiling, single point inhibition and IC50 for off-target kinases
What all share (assay type): biochemical

Test [1] concerns the target off-target kinases (Homo sapiens, UniProt P00519, H396P). To be noted: ABL1 H396P, LanthaScreen Binding. (In general: Time-resolved FRET reads energy transfer from a long-lived donor to a nearby acceptor.)
Test [2] addresses off-target kinases (Homo sapiens, UniProt P04049, Y340D/Y341D).
The target of test [3] is off-target kinases (Homo sapiens, UniProt Q06187). The note with it: BTK, ZLYTE, ATP Km app.
For test [4], the target named is T1, off-target kinases (Homo sapiens, UniProt P36896).
T1 sequence (P36896 24-505): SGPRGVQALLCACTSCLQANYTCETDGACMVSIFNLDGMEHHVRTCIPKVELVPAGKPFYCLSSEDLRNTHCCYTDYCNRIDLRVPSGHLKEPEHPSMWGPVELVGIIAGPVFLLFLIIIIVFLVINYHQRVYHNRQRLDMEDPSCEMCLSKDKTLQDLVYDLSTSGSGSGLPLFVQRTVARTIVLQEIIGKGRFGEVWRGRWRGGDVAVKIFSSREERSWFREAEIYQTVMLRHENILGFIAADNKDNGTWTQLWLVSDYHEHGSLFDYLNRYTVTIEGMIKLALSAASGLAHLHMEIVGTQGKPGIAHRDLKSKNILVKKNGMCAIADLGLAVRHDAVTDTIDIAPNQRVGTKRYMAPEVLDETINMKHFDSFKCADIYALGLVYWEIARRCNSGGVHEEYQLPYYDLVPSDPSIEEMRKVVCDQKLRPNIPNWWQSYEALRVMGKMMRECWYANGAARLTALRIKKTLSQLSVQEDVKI
To be noted: ACVR1B (ALK4); Cmpd1 1000 μM; ATP Km app; ZLYTE.

Test [5] deals with off-target kinases (Homo sapiens, UniProt P08069). The note with it: IGF1R, ZLYTE, ATP Km app.
Test [6] deals with off-target kinases (Homo sapiens, UniProt Q86UE8). The note with it: TLK2, LanthaScreen Binding.
In test [7] the target is off-target kinases (Homo sapiens, UniProt Q8N568). To be noted: DCAMKL2 (DCK2), ZLYTE, ATP Km app.
Chain of off-target kinases (Homo sapiens, UniProt Q8N568) (Q8N568 whole entry): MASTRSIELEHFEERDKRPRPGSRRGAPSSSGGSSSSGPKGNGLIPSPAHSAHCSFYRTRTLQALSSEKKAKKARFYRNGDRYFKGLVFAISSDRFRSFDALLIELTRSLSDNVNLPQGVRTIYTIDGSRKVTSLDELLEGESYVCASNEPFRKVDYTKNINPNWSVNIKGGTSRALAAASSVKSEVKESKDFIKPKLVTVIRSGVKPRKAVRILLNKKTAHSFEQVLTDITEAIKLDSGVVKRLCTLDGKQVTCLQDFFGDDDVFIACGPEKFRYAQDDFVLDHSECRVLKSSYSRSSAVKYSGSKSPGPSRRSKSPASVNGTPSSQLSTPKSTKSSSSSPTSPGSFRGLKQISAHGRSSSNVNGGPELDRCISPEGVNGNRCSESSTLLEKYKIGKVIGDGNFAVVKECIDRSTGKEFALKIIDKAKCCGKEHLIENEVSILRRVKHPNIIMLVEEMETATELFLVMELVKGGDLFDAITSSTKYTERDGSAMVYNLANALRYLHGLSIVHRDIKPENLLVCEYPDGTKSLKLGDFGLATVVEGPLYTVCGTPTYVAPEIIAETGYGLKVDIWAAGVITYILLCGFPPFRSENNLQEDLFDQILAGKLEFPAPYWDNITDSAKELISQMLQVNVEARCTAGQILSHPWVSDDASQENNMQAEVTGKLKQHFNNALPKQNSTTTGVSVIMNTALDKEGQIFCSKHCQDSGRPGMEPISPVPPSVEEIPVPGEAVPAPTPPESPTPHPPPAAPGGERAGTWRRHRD

Chain of off-target kinases (Homo sapiens, UniProt P04049, Y340D/Y341D) (P04049 whole entry Y340D/Y341D): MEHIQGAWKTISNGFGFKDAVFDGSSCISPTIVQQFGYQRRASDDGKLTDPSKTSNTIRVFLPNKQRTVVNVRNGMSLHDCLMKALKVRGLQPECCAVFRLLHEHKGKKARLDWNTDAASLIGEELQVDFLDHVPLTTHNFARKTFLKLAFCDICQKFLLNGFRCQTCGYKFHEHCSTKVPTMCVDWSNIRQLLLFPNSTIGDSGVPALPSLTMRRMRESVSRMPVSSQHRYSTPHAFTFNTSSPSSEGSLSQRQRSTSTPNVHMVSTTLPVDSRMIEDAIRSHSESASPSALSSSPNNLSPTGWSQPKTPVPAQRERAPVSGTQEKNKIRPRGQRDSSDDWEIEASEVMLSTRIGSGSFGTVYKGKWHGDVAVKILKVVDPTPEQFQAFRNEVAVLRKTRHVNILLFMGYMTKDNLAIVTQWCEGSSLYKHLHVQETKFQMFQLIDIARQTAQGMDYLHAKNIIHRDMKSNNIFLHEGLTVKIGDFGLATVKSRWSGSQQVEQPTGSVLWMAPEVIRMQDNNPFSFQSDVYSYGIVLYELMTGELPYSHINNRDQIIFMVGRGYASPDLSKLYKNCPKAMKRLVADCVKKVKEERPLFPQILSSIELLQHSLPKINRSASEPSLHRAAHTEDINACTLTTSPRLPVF
Chain of off-target kinases (Homo sapiens, UniProt Q06187) (Q06187 whole entry): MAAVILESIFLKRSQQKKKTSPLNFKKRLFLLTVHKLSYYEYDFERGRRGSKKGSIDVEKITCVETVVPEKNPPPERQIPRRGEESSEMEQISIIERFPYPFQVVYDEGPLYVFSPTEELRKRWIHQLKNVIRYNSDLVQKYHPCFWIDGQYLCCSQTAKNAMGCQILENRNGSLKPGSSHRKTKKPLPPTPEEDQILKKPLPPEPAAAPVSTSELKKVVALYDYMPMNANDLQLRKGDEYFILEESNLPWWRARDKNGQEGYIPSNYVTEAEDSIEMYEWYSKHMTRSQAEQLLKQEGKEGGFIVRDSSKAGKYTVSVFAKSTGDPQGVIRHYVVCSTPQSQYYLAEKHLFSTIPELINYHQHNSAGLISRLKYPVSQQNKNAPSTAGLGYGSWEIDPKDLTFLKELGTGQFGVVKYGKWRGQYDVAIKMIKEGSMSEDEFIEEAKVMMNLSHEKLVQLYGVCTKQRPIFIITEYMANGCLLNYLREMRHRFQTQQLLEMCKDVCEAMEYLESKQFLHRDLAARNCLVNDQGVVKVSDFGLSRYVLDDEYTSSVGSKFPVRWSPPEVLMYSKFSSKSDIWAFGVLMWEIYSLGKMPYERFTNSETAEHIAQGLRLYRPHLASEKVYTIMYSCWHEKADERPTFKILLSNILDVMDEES
Chain of off-target kinases (Homo sapiens, UniProt Q86UE8) (Q86UE8 whole entry): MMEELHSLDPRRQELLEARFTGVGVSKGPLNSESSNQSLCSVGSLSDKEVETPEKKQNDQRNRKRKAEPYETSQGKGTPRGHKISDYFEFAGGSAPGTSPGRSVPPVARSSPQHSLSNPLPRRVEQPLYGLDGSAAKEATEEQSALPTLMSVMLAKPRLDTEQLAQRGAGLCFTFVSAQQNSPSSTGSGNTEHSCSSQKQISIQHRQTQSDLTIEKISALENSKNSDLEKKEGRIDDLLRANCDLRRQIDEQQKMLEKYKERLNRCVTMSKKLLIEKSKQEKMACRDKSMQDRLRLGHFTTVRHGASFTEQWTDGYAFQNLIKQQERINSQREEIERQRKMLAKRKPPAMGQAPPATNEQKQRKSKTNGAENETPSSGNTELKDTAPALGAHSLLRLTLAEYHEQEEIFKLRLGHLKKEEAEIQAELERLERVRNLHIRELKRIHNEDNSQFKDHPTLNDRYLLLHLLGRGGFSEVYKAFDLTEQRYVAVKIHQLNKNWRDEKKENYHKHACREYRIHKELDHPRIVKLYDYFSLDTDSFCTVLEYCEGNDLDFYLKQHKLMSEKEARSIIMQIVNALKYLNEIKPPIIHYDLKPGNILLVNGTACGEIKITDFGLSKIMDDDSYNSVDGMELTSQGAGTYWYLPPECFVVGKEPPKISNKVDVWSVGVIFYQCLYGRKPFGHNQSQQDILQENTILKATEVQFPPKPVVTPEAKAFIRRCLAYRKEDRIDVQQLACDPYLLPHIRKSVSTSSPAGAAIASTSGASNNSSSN
Chain of off-target kinases (Homo sapiens, UniProt P08069) (P08069 31-1367): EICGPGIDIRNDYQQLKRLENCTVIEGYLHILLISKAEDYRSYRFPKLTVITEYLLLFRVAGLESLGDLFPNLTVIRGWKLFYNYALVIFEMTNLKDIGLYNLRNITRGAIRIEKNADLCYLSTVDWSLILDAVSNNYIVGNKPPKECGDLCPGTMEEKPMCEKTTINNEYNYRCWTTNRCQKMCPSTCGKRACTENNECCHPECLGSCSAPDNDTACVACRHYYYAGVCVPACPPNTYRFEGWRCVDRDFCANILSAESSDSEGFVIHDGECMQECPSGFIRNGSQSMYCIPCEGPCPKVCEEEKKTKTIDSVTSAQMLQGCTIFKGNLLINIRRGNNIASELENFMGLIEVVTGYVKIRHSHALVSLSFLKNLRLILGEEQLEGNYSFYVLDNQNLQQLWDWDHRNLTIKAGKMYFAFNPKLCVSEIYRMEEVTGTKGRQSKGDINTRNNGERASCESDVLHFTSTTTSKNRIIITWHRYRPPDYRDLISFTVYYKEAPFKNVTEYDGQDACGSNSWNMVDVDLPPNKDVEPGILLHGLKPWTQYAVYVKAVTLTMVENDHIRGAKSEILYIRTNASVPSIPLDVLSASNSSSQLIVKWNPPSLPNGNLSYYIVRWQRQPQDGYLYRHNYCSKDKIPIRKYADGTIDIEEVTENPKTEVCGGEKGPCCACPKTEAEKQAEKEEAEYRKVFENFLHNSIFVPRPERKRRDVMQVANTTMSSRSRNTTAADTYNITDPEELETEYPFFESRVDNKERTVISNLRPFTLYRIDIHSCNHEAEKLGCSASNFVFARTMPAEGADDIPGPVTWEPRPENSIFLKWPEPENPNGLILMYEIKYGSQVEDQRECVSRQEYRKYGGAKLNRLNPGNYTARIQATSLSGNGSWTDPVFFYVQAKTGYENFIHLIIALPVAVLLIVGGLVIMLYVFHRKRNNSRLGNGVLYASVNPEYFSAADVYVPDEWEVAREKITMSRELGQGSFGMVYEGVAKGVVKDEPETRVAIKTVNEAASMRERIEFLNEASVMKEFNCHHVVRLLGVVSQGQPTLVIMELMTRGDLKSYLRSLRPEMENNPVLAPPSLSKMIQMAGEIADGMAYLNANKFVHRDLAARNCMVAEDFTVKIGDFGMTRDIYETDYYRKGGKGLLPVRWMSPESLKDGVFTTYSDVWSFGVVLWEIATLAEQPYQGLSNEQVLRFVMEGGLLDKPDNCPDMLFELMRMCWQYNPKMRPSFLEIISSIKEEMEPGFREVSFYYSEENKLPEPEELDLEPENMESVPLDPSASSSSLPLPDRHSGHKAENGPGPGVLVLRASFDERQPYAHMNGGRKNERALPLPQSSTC

In general, inhibition refers to how much of the control response was suppressed. In the case of `N#Cc1cc(-c2ncnc(Nc3ccc(N4CCN(C5COC5)CC4)cc3)n2)ccc1OC1CCOCC1` [Compound 1, 5-(4-((4-(4-(oxetan-3-yl)piperazin-1-yl)phenyl)amino)-1,3,5-triazin-2-yl)-2-((tetrahydro-2H-pyran-4-yl)oxy)benzonitrile], the inhibition on off-target kinases [1] (read-out: % Inhibition 1) was found to be 58%; on off-target kinases [1] (read-out: % Inhibition 2), 60%; on off-target kinases [1] (read-out: % Inhibition Avg) it was 59%; on off-target kinases [2] (RAF1 (cRAF) Y340D Y341D (mutant), ZLYTE, ATP 100, read-out: % Inhibition 1), 5%; at off-target kinases [2] (RAF1 (cRAF) Y340D Y341D (mutant), ZLYTE, ATP 100, read-out: % Inhibition 2), 3%; on off-target kinases [2] (RAF1 (cRAF) Y340D Y341D (mutant), ZLYTE, ATP 100, read-out: % Inhibition Avg), 4%. Also, the inhibition at off-target kinases [2] (RAF1 (cRAF) Y340D Y341D, mutant y, LanthaScreen Binding, read-out: % Inhibition 1) was determined as 15%; at off-target kinases [2] (RAF1 (cRAF) Y340D Y341D, mutant y, LanthaScreen Binding, read-out: % Inhibition 2), 20%; on off-target kinases [2] (RAF1 (cRAF) Y340D Y341D, mutant y, LanthaScreen Binding, read-out: % Inhibition Avg), 18%; at off-target kinases [3] (read-out: % Inhibition 1), 3%; on off-target kinases [3] (read-out: % Inhibition 2), 6%; on off-target kinases [3] (read-out: % Inhibition Avg), 5%. The inhibition on off-target kinases [5] (read-out: % Inhibition 1) came out at 1%; on off-target kinases [5] (read-out: % Inhibition 2) it was 2%; at off-target kinases [5] (read-out: % Inhibition Avg), 1%; at off-target kinases [6] (read-out: % Inhibition 1) it was 84%; at off-target kinases [6] (read-out: % Inhibition 2), 81%; on off-target kinases [6] (read-out: % Inhibition Avg), 83%. Further, the inhibition worked out at 11% on off-target kinases [7] (read-out: % Inhibition 1), 3% on off-target kinases [7] (read-out: % Inhibition 2) and 7% on off-target kinases [7] (read-out: % Inhibition Avg). In addition, the “% Inhibition 1” value on off-target kinases [4] was −10%. On off-target kinases [4], the “% Inhibition 2” value was −4%. For the same compound, the “% Inhibition Avg” value on off-target kinases [4] is −7%.
